# Source: US12600732B2, “Bifunctional compounds for degrading BTK via ubiquitin proteosome pathway” (NURIX THERAPEUTICS, INC., priority 2019, dated 2026)
# Values joined by “and” are separate entries in the source; they are usually repeats but may differ in a detail not shown here. Equal entries are not always repeated.
# Legend:
# primary human T cells [1] = experiment: T cell activation assay, IL-2 secretion (ELISA); format: cell-based; conditions: for IL-2 secretion compared to baseline (anti-CD3/anti-CD28 stimulation alone): primary human T cells
# Description: (§1) This example evaluates whether CTMs with IMiD activity affect T cell activation. […] These assays were performed to assess whether BTK CTMs with and without IMiD activity affected activation of primary human T cells after stimulation of the T cell receptor with anti-CD3/ati-CD28 stimulation. T cell activation was measured by IL-2 secretion (ELISA assay) and upregulation of activation markers CD25 and CD69 on the surface of T cells (flow cytometry). Data are presented as the fold-change of response relative to baseline (stimulation with anti-CD3/anti-CD28 stimulation in the absence of compound).
# BTK = target: T1, BTK (Mus musculus, UniProt P35991); experiment: In vivo degradation of BTK in mouse PD experiments with oral dosing; conditions: 6 h, splenocytes, HTRF
# T1 construct: from tissue; host or cells: mouse blood B cells / splenocytes (CD-1 or BALB/c)
# Description: A method of determining the pharmacodynamic profile of BTK degraders was performed by dosing either CD-1 or BALB/c mice with CTM. The CTM was prepared in a suitable formulation and was administered via oral gavage (PO) at a suitable dose level and frequency as informed by prior pharmacokinetic and tolerability studies. Following administration of CTM, BTK levels in blood or splenocytes are measured using flow cytometry or HTRF. For assessment of BTK levels via flow cytometry, either whole blood or splenocytes were first treated with ACK RBC lysis buffer to facilitate lysing of red blood cells. Remaining cells were then stained with fluorophore-conjugated antibodies against CD45, TCR beta and CD45R (B220). Cell pellets were washed with 1×PBS, fixed, and permeabilized for twenty-four hours with Foxp3/Transcription Factor Fixation/Permeabilization Kit. Cells were then stained intracellularly with unconjugated BTK antibody and detected with a fluorophore-conjugated secondary antibody. Stained cells were run on an Attune N×T Acoustic Focusing Flow Cytometer (Thermo-Fisher A29004), and data was analyzed using FlowJo (v10.5.3) and GraphPad Prism (v7.00) software. Lymphocytes were gated for B cells defined as CD45+ TCR beta−B220+ and T cells as CD45+ TCR beta+B220−. The BTK geometric mean fluorescence intensity (MFI) was calculated for B and T cells. Percent BTK degradation for each compound-treated sample was calculated using the equation described below: % Degradation=100*(Treated sample B cell BTK MFI-treated sample T cell BTK MFI)/Vehicle B cell BTK MFI-Vehicle T cell BTK MFI)
# This example evaluates in vivo activity of BTK CTMs via a direct mouse PD measurement following oral dosing
# Screens were completed at 90 mg/kg for six hours, and then changed to lower doses/longer time points after seeing strong BTK degradation activity with an initial set of compounds. This assay was useful in selecting compounds for in vivo efficacy experiments.
# primary human T cells [2] = experiment: T cell activation assay, CD25 and CD69 staining (flow cytometry); format: cell-based; conditions: for CD25 Staining Anti-CD3/Anti-CD28 Stimulation / CD69 Staining Anti-CD3/Anti-CD28 Stimulation: fold-change of response relative to baseline; for expression of CD25 and CD69 compared to baseline (anti-CD3/anti-CD28 stimulation alone): primary human T cells
# Description: as §1
# [3] = 1.4 nM, fold-change of response relative to baseline
# [4] = 37 nM, fold-change of response relative to baseline
# [5] = 333 nM, fold-change of response relative to baseline (stimulation without compound)
# T1 sequence (P35991 whole entry): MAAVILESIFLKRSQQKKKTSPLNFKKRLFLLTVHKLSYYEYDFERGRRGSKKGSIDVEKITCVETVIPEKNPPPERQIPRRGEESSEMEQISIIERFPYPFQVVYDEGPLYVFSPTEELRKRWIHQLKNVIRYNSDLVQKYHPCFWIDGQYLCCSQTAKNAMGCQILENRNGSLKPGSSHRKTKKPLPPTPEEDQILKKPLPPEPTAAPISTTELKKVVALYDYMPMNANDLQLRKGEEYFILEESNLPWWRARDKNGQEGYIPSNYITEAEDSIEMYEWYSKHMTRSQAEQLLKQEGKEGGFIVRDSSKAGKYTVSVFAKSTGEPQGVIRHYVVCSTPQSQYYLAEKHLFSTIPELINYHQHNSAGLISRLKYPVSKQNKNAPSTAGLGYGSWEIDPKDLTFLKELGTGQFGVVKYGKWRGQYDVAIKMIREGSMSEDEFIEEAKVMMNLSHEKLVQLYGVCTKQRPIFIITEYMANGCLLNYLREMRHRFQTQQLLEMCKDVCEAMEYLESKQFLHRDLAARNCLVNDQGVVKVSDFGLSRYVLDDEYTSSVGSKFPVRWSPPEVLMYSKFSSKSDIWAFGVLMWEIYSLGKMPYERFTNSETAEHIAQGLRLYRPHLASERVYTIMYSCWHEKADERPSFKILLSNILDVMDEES
SMILES,IL-2 Secretion Anti-CD3/Anti-CD28 Stimulation (primary human T cells [1]; [3]),IL-2 Secretion Anti-CD3/Anti-CD28 Stimulation (primary human T cells [1]; [4]),IL-2 Secretion Anti-CD3/Anti-CD28 Stimulation (primary human T cells [1]; [5]),"% BTK Remaining (BTK; oral dose 1 mg/kg, 1 mg/kg)",% BTK Remaining (BTK; oral dose 3 mg/kg) [%],CD25 Staining Anti-CD3/Anti-CD28 Stimulation (primary human T cells [2]; 1.4 nM),CD69 Staining Anti-CD3/Anti-CD28 Stimulation (primary human T cells [2]; 1.4 nM),CD25 Staining Anti-CD3/Anti-CD28 Stimulation (primary human T cells [2]; 37 nM),CD69 Staining Anti-CD3/Anti-CD28 Stimulation (primary human T cells [2]; 37 nM),CD25 Staining Anti-CD3/Anti-CD28 Stimulation (primary human T cells [2]; 333 nM),CD69 Staining Anti-CD3/Anti-CD28 Stimulation (primary human T cells [2]; 333 nM),IL-2 secretion compared to baseline (anti-CD3/anti-CD28 stimulation alone) (primary human T cells [1]),expression of CD25 and CD69 compared to baseline (anti-CD3/anti-CD28 stimulation alone) (primary human T cells [2]),% BTK Remaining (BTK; oral dose 1 mg/kg) [%]
CN1CCN([C@@H]2CCCN(c3cnc(C(N)=O)c(Nc4ccc(N5CCN(C[C@@H]6[C@H]7CN(c8ccc9c(c8)C(=O)N(C8CCC(=O)NC8=O)C9=O)C[C@@H]67)CC5)cc4)n3)C2)C1=O (stereo partly shown) [Compound 38],1.21,1.58,1.81,68% and 76%,38,1.05,1.02,1.02,0.99,0.86,0.90,–,–,–
"Nc1cccc2c1C(=O)N(C1CCC(=O)NC1=O)C2=O (stereo not shown) [Pomalidomide, pomalidomide, reference compound]",1.31,4.80,5.50,–,–,1.03,1.01,1.39,1.33,1.63,1.77,induce IL-2 secretion,increase expression,–
CN1CCN([C@@H]2CCCN(c3cnc(C(N)=O)c(Nc4ccc(C5CCN(CCCNc6cccc7c6C(=O)N(C6CCC(=O)NC6=O)C7=O)CC5)cc4)n3)C2)C1=O (stereo partly shown) [Compound 155],1.62,3.13,3.11,–,–,1.31,1.25,1.46,1.34,1.21,1.20,–,–,–
"Nc1cccc2c1CN(C1CCC(=O)NC1=O)C2=O (stereo not shown) [Lenalidomide, lenalidomide, reference compound]",1.63,4.48,8.67,–,–,1.26,1.20,1.73,1.49,1.93,1.81,induce IL-2 secretion,increase expression,–
"CN1CCN([C@@H]2CCCN(c3cnc(C(N)=O)c(Nc4ccc(N5CC6(C5)CN(c5ccc7c(c5)C(=O)N(C5CCC(=O)NC5=O)C7=O)C6)cc4)n3)C2)C1=O (stereo partly drawn) [Compound 34, 3-((4-(6-(2-(2,6-dioxopiperidin-3-yl)-1,3-dioxoisoindolin-5-yl)-2,6-diazaspiro[3.3]heptan-2-yl)phenyl)amino)-5-((R)-3-(3-methyl-2-oxoimidazolidin-1-yl)piperidin-1-yl)pyrazine-2-carboxamide]",1.48,1.66,1.58,–,–,1.21,1.14,1.31,1.21,1.25,1.23,–,–,75
